Consider three compounds from patent US4987139A, “FK-520 microbial transformation product” (Merck & Co., Inc., priority 1989, dated 1991).

The conditions of series [1]: reputed; EPO Publication No. 0184162; cited from earlier work.
Series [2] has as its system mouse T lymphocytes. The series can be described thus: T-cell proliferation assay (ionomycin plus PMA induced T-cell stimulation, tritiated thymidine uptake). Type of series: cell-based, mouse (C57B1/6). To be noted: for IC50: T-cell proliferation. Here is the method: The principle of this assay is to measure the proliferation of mouse T lymphocytes stimulated with the combination of ionomycin plus PMA. A positive sample in this assay will inhibit T-cell proliferation, as indicated by reduced tritiated thymidine uptake.
Purified L-687,795, as prepared by HPLC above, was dissolved in absolute ethanol at 10 mg/ml.
Spleens from C57B1/6 mice were taken under sterile conditions and gently dissociated in ice-cold RPMI 1640 culture medium (GIBCO, Grand Island, N.Y.) supplemented with 10% heat-inactivated fetal calf serum (GIBCO). Cells were pelleted by centrifugation at 1500 rpm for 8 minutes. Contaminating red cells were removed by treating the pellet with ammonium chloride lysing buffer (GIBCO) for 2 minutes at 4° C. Cold medium was added and cells were again centrifuged at 1500 rpm for 8 minutes. T lymphocytes were then isolated by separation of the cell suspension on nylon wool columns as follows: Nylon wool columns were prepared by packing approximately 4 grams of washed and dried nylon wool into 20 ml plastic syringes. The columns were sterilized by autoclaving at 250° F for 30 minutes. Nylon wool columns were wetted with warm (37° C) culture medium and rinsed with the same medium. Washed spleen cells resuspended in warm medium were slowly applied to the nylon wool. The columns were then incubated in an upright position at 37° C for 1 hour. Non-adherent T lymphocytes were eluted from the columns with warm culture medium and the cell suspensions were spun as above.
Purified T lymphocytes were resuspended at 2.5×10^5 cells/ml in complete culture medium composed of RPMI 1640 medium with 10% heat-inactivated fetal calf serum, […], 1 mM sodium pyruvate, 2×10^-5 M 2-mercaptoethanol and 50 μg/ml gentamycin. Ionomycin was added at 250 ng/ml and PMA at 10 ng/ml. The cell suspension was immediately distributed into 96 well flat-bottom microculture plates (Costar) at 200 μl/well. The control, being the medium without test drug, and various below-indicated dilutions of the sample (above-describedpurified L-687,795) to be tested were then added in triplicate wells at 20 μl/well. L-683,590 was used as a standard. The culture plates were then incubated at 37° C. in a humidified atmosphere of 5% CO2 -95% air for 44 hours. The proliferation of T lymphocytes was assessed by measurement of tritiated thymidine incorporation. After 44 hours of culturing, the cells were pulse-labelled with 2 μ Ci/well of tritiated thymidine (NEN, Cambridge, MA). After another 4 hours of incubation, cultures were harvested on glass fiber filters using a multiple sample harvester. Radioactivity of filter discs corresponding to individual wells was measured by standard liquid scintillation counting methods (Betacounter). Mean counts per minute of replicate wells were calculated and the results expressed as percent inhibition of tritiated thymidine uptake (proliferation) as follows: [formula]
1. Mouse T cell cultures were pulsed with ^3 Hthymidine for 4 hours
prior to harvesting at 48 hours.

The nature of series [3]: Solubility (physical characteristics). It counts as physicochemical. As to conditions: methanol.

For orientation: inhibition means the drop in the measured response relative to a control, in per cent. One may read the IC50 as the concentration that gives 50% inhibition.

Structures are written as SMILES. “Also recorded” adds a separate entry of the source. Like-named read-outs stand apart in the source and are kept apart here.

Take `C=CC[C@@H]1/C=C(\C)C[C@H](C)C[C@H](OC)[C@H]2O[C@@](O)(C(=O)C(=O)N3CCCC[C@H]3C(=O)O[C@H](/C(C)=C/[C@@H]3CC[C@@H](O)[C@H](OC)C3)[C@H](C)[C@@H](O)CC1=O)[C@H](C)C[C@@H]2OC` [FK-506]: in series [1], the “times more effective than cyclosporin” value is 100 times.

With `CC[C@@H]1/C=C(\C)C[C@H](C)C[C@H](OC)[C@H]2O[C@@](O)(C(=O)C(=O)N3CCCC[C@H]3C(=O)O[C@H](/C(C)=C/[C@@H]3CC[C@@H](O)[C@H](OC)C3)[C@H](C)[C@@H](O)CC1=O)[C@H](C)C[C@@H]2OC` [L-683,590, reference compound], in series [2] (Mus musculus, T-lymphocyte, 10 ng/ml, standard), the inhibition at 0.01 µg/mL came to 99%.

As for `CCC1C=C(C)CC(C)CC(O)C(O)C2CC(C)C(O)(O2)C(=O)C(=O)N2CCCCC2C(=O)OC(C(C)=CC2CCC(O)C(O)C2)C(C)C(O)CC1=O` [L-687,795], the “Inhibition of proliferation on addition of recombinant human IL2” value in series [2] (50 units/m recombinant human IL2 added at initiation of culture) was “reversed”. The inhibition at 0.39 µg/mL in series [2] (Mus musculus, T-lymphocyte, 390 ng/ml, ionomycin + PMA, 48 h) amounted to 0%. In addition, the inhibition at 0.57 µg/mL in series [2] (Mus musculus, T-lymphocyte, 570 ng/ml, ionomycin + PMA, 48 h) was found to be 2%. Also, the inhibition at 0.87 µg/mL in series [2] (Mus musculus, T-lymphocyte, 870 ng/ml, ionomycin + PMA, 48 h) worked out at 29%. For the same compound, in series [2] (Mus musculus, T-lymphocyte, 1,300 ng/ml, ionomycin + PMA, 48 h), the inhibition at 1.3 µg/mL stood at 60%. Besides, the inhibition at 1.9 µg/mL in series [2] (Mus musculus, T-lymphocyte, 1,900 ng/ml, ionomycin + PMA, 48 h) was 78%. Moreover, in series [2] (Mus musculus, T-lymphocyte, 2,900 ng/ml, ionomycin + PMA, 48 h), the inhibition at 2.9 µg/mL worked out at 81%. In series [2] (Mus musculus, T-lymphocyte, 4,400 ng/ml, ionomycin + PMA, 48 h), the inhibition at 4.4 µg/mL came to 88%. The inhibition at 6.6 µg/mL in series [2] (Mus musculus, T-lymphocyte, 6,600 ng/ml, ionomycin + PMA, 48 h) amounted to 90%. Besides, the inhibition at 10 µg/mL in series [2] (Mus musculus, T-lymphocyte, 10,000 ng/ml, ionomycin + PMA, 48 h) came to 91%. For the same compound, the IC50 in series [2] (Mus musculus, T-lymphocyte, general range, read-out: IC50, generally in the range of) is 1000 to 1400 nM; in series [2] (Mus musculus, T-lymphocyte, read-out: IC50), 1190 nM. Moreover, the “inhibition of T-cell activation / immunosuppressive activity by the T-cell proliferation assay” value in series [2] (qualitative) is “positive inhibition of T-cell activation; also recorded: positive immunosuppressive activity”. Moreover, the Solubility entry in series [3] was “Solubility in methanol”.
